Patent US20070254907A1, “COMPOSITIONS AND METHODS FOR CONTROLLING INFESTATION” (HATCHTECH PTY LTD, priority 2003, published 2007)
Entries after “also recorded” stand apart in the source; their conditions may differ.

What was measured:
lice eggs = test: whole plant or invertebrate; assay type: in vivo; details: Lice (L)
Plutella xylostella eggs [1] = test: whole plant or invertebrate; assay type: in vivo; details: for Ovicidal activity % / Activity class 0 = inactive 1 = low 2 = med 3 = high: Plutella (P); for % Inhibition: relative to controls
Protocol: The ovicidal efficacy of 2-acetyl-1-tetralone was also tested against Plutella eggs.

Plutella xylostella eggs [2] = test: Reversal of inhibition of Plutella egg hatching by added FeSO4; assay type: in vivo
Protocol: (§1) Within 24 hours of collection the following experimental design was chosen. Batches of eggs were exposed to 10 mM 6,6′-dimethyl-2,2′-dipyridyl for 2 seconds while additional batches of eggs were exposed to the solvent only (Methanol) for 2 seconds. All batches of eggs were allowed to air dry for 20 minutes at room temperature. The eggs were then given a 2 second exposure to FeSO4 at either 10, 5 or 1 mM, air dried and put in the incubator at 24° C. and allowed to hatch over the next 6 days. In addition, a positive control of 10 mM 6,6′-dimethyl-2,2′-dipyridyl was set up in which eggs were exposed to this compound for 2 seconds, air dried and placed in the incubator.
as §1, with “10 mM 5,5′-dimethyl-2,2′-dipyridyl for 2” for “10 mM 6,6′-dimethyl-2,2′-dipyridyl for 2”, “FeSO4 at 10, 5” for “FeSO4 at either 10, 5”, “put in an incubator at” for “put in the incubator at”, “of 10 mM, 5,5′-dimethyl-2,2′-dipyridyl was set” for “of 10 mM 6,6′-dimethyl-2,2′-dipyridyl was set”

B. ovis eggs = test: Egg hatching in Bovicola ovis; assay type: in vivo; details: 10 mM; for Number hatched in different replicates: 10 eggs per replicate; for % Inhibition: in comparison to the controls; for Number unhatched: per replicate
Protocol: B. ovis eggs were collected from the wool of sheep that were infested with this parasite. The eggs were collected using forceps and with the aid of a dissecting microscope and placed in 24 well tissue culture plates in duplicate lots of 10 eggs per replicate. The eggs were then exposed to either methanol alone (control) or the test compounds for either 10 minutes or 1 minute before being removed from the wells and placed into individual glass vials containing a diet at the base of the tube. The tubes were placed in plastic containers containing a salt solution (to keep humidity constant at 68%) and the containers maintained at a temperature 32° C. The eggs were monitored for hatching over the following 12 days and % hatch inhibition determined in comparison to the controls.

[3] = system: Lice (L) and Plutella (P) eggs; details: Lice (L) and Plutella (P)
[4] = system: Helicoverpa armigera eggs; test: Egg hatching of Helicoverpa armigera; details: 10 mM
Protocol: A range of concentrations were made up in water and the eggs placed in the solutions for approximately 2-10 seconds. The eggs which had been laid on cloth were then blotted dry and placed in an incubator at 26° C. for 3-4 days until hatch. Hatch rates were then assessed compared to a water only treated control (FIG. 5).
The compound was dissolved in 100% diethoxyglycol and diluted to a final concentration of 1% in water.
Several hundred Helicoverpa armigera eggs (Tatura×Toowoomba strains) were collected, that had been laid on fine mesh cloth over a 24 hour period.
Batches of Helicoverpa eggs were exposed to a specific inhibitor solution for between 2-10 seconds the excess solution drained by blotting with dry tissue paper. The egg masses were then placed in a humid box at 25 degrees until egg hatch. Control eggs were exposed to absolute methanol as described above. At day 6 post laying the eggs were assessed from the different treatments and the percentage of egg hatch determined relative to the control as shown in Table 12.
Batches of Helicoverpa eggs were then exposed to a specific inhibitor solution for between 2-10 seconds the excess solution drained by blotting with dry tissue paper. The egg masses were then placed in a humid box at 25° C. until egg hatch. Control eggs were exposed to absolute methanol as described above. At day 6 post laying the eggs were assessed from the different treatments and the percentage of egg hatch determined relative to the control as shown in Table 13.

[5] = Table 10, eggs laid on cloth, 1 mM
[6] = Table 10, eggs laid on cloth, 10 mM
[7] = Table 11, eggs laid on parafilm, 1 mM
[8] = Table 11, eggs laid on parafilm, 10 mM
[9] = 10 mM chelator followed by 2 second exposure to 1 mM FeSO4
[10] = 10 mM chelator followed by 2 second exposure to 5 mM FeSO4
[11] = 10 mM chelator followed by 2 second exposure to 10 mM FeSO4
[12] = 10 mM chelator followed by 2 second exposure to MEOH
[13] = 10 mM chelator, 2 s, (+ve) control without second exposure

## Cc1ccc(-c2ccc(C)cn2)nc1 [5,5′-dimethyl-2,2′-dipyridyl]
Lice eggs; 30 mM
  Ovicidal activity %: 100.00%
Lice eggs; listed as of 30 mM
  Activity class 0 = inactive 1 = low 2 = med 3 = high: 2 (a pLD50 value between 3 and 4 is considered moderately active (Class 2))
Plutella xylostella eggs [1]; 10 and 1 mM
  effect on egg hatching of Plutella xylostella (words): significantly inhibit egg hatching
Plutella xylostella eggs [1]; 0.1 mM
  Ovicidal activity %: 57.00%
Plutella xylostella eggs [1]; 1 mM
  Ovicidal activity %: 98.00%
Plutella xylostella eggs [1]; listed as of 0.1 mM
  Activity class 0 = inactive 1 = low 2 = med 3 = high: 3 (a pLD50 greater than 4 is considered strongly active (Class 3))
Plutella xylostella eggs [1]; listed as of 1 mM
  Activity class 0 = inactive 1 = low 2 = med 3 = high: 3 (a pLD50 greater than 4 is considered strongly active (Class 3))
Plutella xylostella eggs [1]; [5]
  Number hatched: 5
  Number unhatched: 22
  % Inhibition: 78%
Plutella xylostella eggs [1]; [6]
  Number hatched: 0
  Number unhatched: 21
  % Inhibition: 100%
Plutella xylostella eggs [1]; [7]
  Number hatched: 18
  Number unhatched: 133
  % Inhibition: 88%
Plutella xylostella eggs [1]; [8]
  Number hatched: 0
  Number unhatched: 138
  % Inhibition: 100%
Plutella xylostella eggs [2]; [9]
  Number hatched: 39
  Number unhatched: 0
Plutella xylostella eggs [2]; 10 mM chelator followed by 2 second exposure to 1 mM FeSO4, relative to FeSO4 controls
  % Inhibition: 0%
Plutella xylostella eggs [2]; [10]
  Number hatched: 25
  Number unhatched: 0
Plutella xylostella eggs [2]; 10 mM chelator followed by 2 second exposure to 5 mM FeSO4, relative to FeSO4 controls
  % Inhibition: 0%
Plutella xylostella eggs [2]; [11]
  Number hatched: 23
  Number unhatched: 2
Plutella xylostella eggs [2]; 10 mM chelator followed by 2 second exposure to 10 mM FeSO4, relative to FeSO4 controls
  % Inhibition: 8%
Plutella xylostella eggs [2]; [12]
  % Inhibition: 55%
  Number hatched: 16
  Number unhatched: 19
Plutella xylostella eggs [2]; [13]
  % Inhibition: 100%
  Number hatched: 0
  Number unhatched: 38
Plutella xylostella eggs [2]; 10 mM chelator, then FeSO4 10, 5 or 1 mM
  effect of added Fe in FeSO4 on the chelator's inhibition of egg hatching: able to reverse the effects
Plutella xylostella eggs [2]; 10 mM chelator, then MeOH
  inhibition of egg hatching after MeOH alone post exposure: significant degree of inhibition of egg hatching
B. ovis eggs; 10 or 1 minute exposure
  egg hatching in the louse: completely inhibited
B. ovis eggs; 1 minute exposure
  Number hatched in different replicates: Rep 1. 0; also recorded: Rep 2. 0
  % Inhibition: 100%
  Number unhatched: 10
B. ovis eggs; 10 minute exposure
  Number hatched in different replicates: Rep 2. 0; also recorded: Rep 1. 0
  % Inhibition: 100%
  Number unhatched: 10
[3]; 10 mM
  Ovicidal activity %: 100.00%
[3]; listed as of 10 mM
  Activity class 0 = inactive 1 = low 2 = med 3 = high: 3 (a pLD50 greater than 4 is considered strongly active (Class 3))
[4]
  effect on egg hatching of Helicoverpa armigera (words): significant inhibition of egg hatching
[4]; Table 13
  Number hatched: 0
  Number unhatched: 42
[4]; Table 13, relative to the control (100% MeOH)
  % Inhibition: 100%
